The results in this text go back to US5208223A, “Phosphocholine derivative inhibitors of phospholipase A2” (American Cyanamid Company, priority 1992, dated 1993).

Common to all, as to format: biochemical
The target of test [1] is T1, porcine pancreatic PLA2 (Sus scrofa, UniProt P00592).
T1 construct: purchased Sigma
The experiment in a line: MHPLA2 assay: in vitro porcine pancreatic phospholipase A2, mixed micelle design, [s]=10 μm. To be noted: for inhibition at 10 µg/mL: dose 10 μ/ml. The procedure:
(§1) Phospholipase A2 activity was measured by a radiochemical assay in which labeled synthetic phosphatidylcholine substrate is converted by porcine pancreatic PLA2 to free radiolabeled arachidonate and lyso PC. Radiolabeled arachidonate is extracted from the reaction mixture and separated from unreacted substrate by column chromatography or TLC. Radioactivity (cpm) in samples is quantitated by liquid scintillation counting. Specific details are as follows:
(§2) Labeled substrate(1-stearyl-2-^3 H-arachidonylphosphatidylcholine; Amersham, sp. act. 84 (uCi/mmole, 0.025 to 0.2 uCi/assay tube and unlabeled substrates (Avanti), in sufficient quantity to give 20,000 cpm to 50,000 cpm and 10 μM to 1,000 μM final concentration/assay tube are dried under a stream of nitrogen. The PLA2 and mPLA2 assays utilized a […] substrate concentration. The mHPLA2 and HPLA2 assays (vida infra) utilized a 10 μM substrate concentration and the SmPLA2 assay utilized a substrate concentration ranging from 100 to 1000 μm. The substrate is then redissolved in 0.1M tris-HCl buffer, pH 9.0 containing 10 mM CaCl2 and 10 mM Na taurocholate detergent. The mixture is sonicated in a Kontes Sonifier to yield a homogeneous dispersion. The "mixed" micellar substrate is clear. An aliquot is reserved for a cpm count (total substrate). The total reaction volume is 500 μL; siliconized glassware or plasticware is used throughout. Enzyme (Sigma, sp. act.>690 U/mg protein and preferably 900 U/mg protein) is diluted 1:750 or 1:1000 in 0.1M tris-HCl buffer, pH 9.0 (without Ca^++ and detergent). Enzyme dilution depends on substrate concentration and required enzyme concentration.
(§3) The substrate in buffer is kept on ice until the reaction is started. The reaction is started by adding 10 μL of diluted enzyme solution to 490 μL of micellar substrate solution. Samples are incubated in a 37° C. water bath for 15 minutes with gentle mixing. The reaction is terminated by the addition of 100 μL of 1M fresh trichloroacetic acid (TCA) solution and chilling the tubes on ice for 30 minutes.
(§4) Samples (600 μL) are extracted with 3 ml CHCl3 /MeOH (2:1) for thin layer chromatography or in hexane/ether (9:1) for column chromatography. The phases are separated by gentle centrifugation at 700 rpm×5'. The organic phase is recovered.
(§5) Labeled arachidonate extracted with CHCl3 /MeOH is separated on silica gel G TLC plates (Analtech). Twenty μL of a 2 mg/ml internal standard solution of arachidonic acid (Sigma) is combined with 2-3 ml of the organic phase. The entire mixture is dried under nitrogen and redissolved in 50 μL of CHCl3 /MeOH (2:1). A 20 μL sample is counted in 10 ml of Beckman Redi-solv HP and spotted on silica gel G plates. The solvent system used to develop the plate is CHCl3 /MeOH/13.5N NH3 /H2 O (70:30:4:1). Plates are developed in a glass chamber for 1-11/2 hours, air dried, and the spots visualized in an iodine vapor chamber. Standards of phosphatidylcholine, lyso PC, and arachidonic acid (Sigma) are made as 2 mg/ml stocks in CHCl3 /MeOH (2:1) and spotted on plates. Spots corresponding to arachidonate and phospholipid are scraped and counted in 10 ml Beckman Redi-Solv HP scintillation fluid.
(§6) Samples are extracted with hexane/ether and the upper organic phase recovered. An aliquot is applied to a Silicar CC4 (Malincrodt) column. Columns are prepared using 1 ml of a 1:1 slurry of silicar CC4 in hexane/ether in a Pasteur pipet (approx. 2 cm height). Columns are rinsed with 500 μL of hexane/ether before adding the sample (300-600 μL) to the column. Columns are eluted with a total of 6 ml of hexane/ether. The 6 ml sample is counted in 10 ml of Beckman Redi-Solv HP scintillation fluid.
(§7) or the phospholipase A2 assay, compounds are prepared as 1 mg/ml stock solutions in MeOH and diluted appropriately in PBS. […]

Test [2] concerns the target T1, porcine pancreatic PLA2. The experiment in a line: PLA2 assay: in vitro porcine pancreatic phospholipase A2, preincubation of drug+enzyme, substrate 2 nM. The settings on record: preincubation, subs. con. 2; for IC50: read-out: IC50 (converted). The procedure:
as §1, §2, §3, §4, §5, §6
or the phospholipase A2 assay, compounds are prepared as 1 mg/ml stock solutions in MeOH and diluted appropriately in PBS.

For test [3], the target named is T1, porcine pancreatic PLA2. The experiment in a line: MPLA2 assay: in vitro porcine pancreatic phospholipase A2, mixed micelle design, substrate 2 nM. The settings on record: for inhibition at 10 µg/mL: dose 10 μ/ml; for inhibition at 20 µg/mL: dose 20 μ/ml; for inhibition at 25 µg/mL / % Inh.: dose 25 μ/ml; for IC50 / % Inh.: subs. con. 2. The procedure: as §1, §2, §3, §4, §5, §6, §7

Where [4] appears, read: dose 10 μ/ml, read-out: % Inh. Avg.
Setting [5] is: subs. con. 2, read-out: % Inh. Avg.
Where [6] appears, read: dose 25 μ/ml, subs. con. 10, read-out: % Inh.
[7] abbreviates: subs. con. 10, read-out: % Inh.
The mark [8] stands for this setting: dose 25 μ/ml, subs. con. 10, read-out: % Inh. Avg.

SMILES strings stand for the structures. Where a name gives a salt, the structure may show the parent alone.

T1 sequence (P00592 23-146): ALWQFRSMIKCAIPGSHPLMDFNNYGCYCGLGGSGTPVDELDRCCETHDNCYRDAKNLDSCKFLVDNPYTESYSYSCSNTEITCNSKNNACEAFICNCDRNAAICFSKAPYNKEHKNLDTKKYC

On to `CCCCCCCCCCCCCCCCSCCCOP(=O)([O-])OCC[N+](C)(C)C` [3,5-Dioxa-9-thia-4-phosphapentacosan-1-aminium, 4-hydroxy-N,N,N-trimethyl-,hydroxide, inner salt, 4-oxide], for which the “% Inh.” value on porcine pancreatic PLA2 [1] (dose 25 μ/ml, subs. con. 10) is listed as “STIM”. The inhibition at 10 µg/mL stood at 54% on porcine pancreatic PLA2 [2] (dose 10 μ/ml, read-out: % Inh.); 4.5% at porcine pancreatic PLA2 [2] (setting [4]); 46% on porcine pancreatic PLA2 [3] (subs. con. 2, read-out: % Inh.). For the same compound, the inhibition at 20 µg/mL is 64% on porcine pancreatic PLA2 [2] (dose 20 μ/ml, read-out: % Inh.) and 83% on porcine pancreatic PLA2 [3] (subs. con. 2, read-out: % Inh.). Besides, the IC50 (in general, the point on the concentration scale where inhibition reaches its midpoint) on porcine pancreatic PLA2 [2] is 12.9 µM; against porcine pancreatic PLA2 [3], 16 µM. The inhibition at 25 µg/mL at porcine pancreatic PLA2 [3] (subs. con. 2, read-out: % Inh.) was 74%; at porcine pancreatic PLA2 [3] (setting [5]), 80%.

For `C=C(CC(COCCCCCCCCCCCCCCCC)COP(=O)([O-])OCC[N+](C)(C)C)C(F)(F)CCCCCCCCCCCCCCCC` (stereo not drawn) [3,5,9-Trioxa-4-phosphapentacosan-1-aminium, 7-(3,3-difluoro-2-methylenenonadecyl)-4-hydroxy-N,N,N-trimethyl-, hydroxide, inner salt, 4-oxide], the inhibition at 25 µg/mL on porcine pancreatic PLA2 [1] (setting [6]) came out at 11%; on porcine pancreatic PLA2 [3] (subs. con. 2, read-out: % Inh.), 80%. For the same compound, on porcine pancreatic PLA2 [2] (dose 10 μ/ml, read-out: % Inh.), the inhibition at 10 µg/mL was 38%. The inhibition at 20 µg/mL at porcine pancreatic PLA2 [2] (dose 20 μ/ml, read-out: % Inh.) amounted to 38%.

For the compound `CCCCCCCCCCCCCCCC[S+]([O-])CCCOP(=O)([O-])OCC[N+](C)(C)C` (stereo not drawn) [4-Hydroxy-N,N,N-trimethyl-3,5-dioxa-9-thia-4-phosphapentacosan-1-aminium, hydroxide, inner salt, 4.9-dioxide], the inhibition at 25 µg/mL at porcine pancreatic PLA2 [1] (setting [6]) was 16%; on porcine pancreatic PLA2 [3] (subs. con. 2, read-out: % Inh.), 68%; on porcine pancreatic PLA2 [3] (setting [5]), 71%. For the same compound, the inhibition at 10 µg/mL on porcine pancreatic PLA2 [2] (dose 10 μ/ml, read-out: % Inh.) was 59%; at porcine pancreatic PLA2 [2] (setting [4]), 61%. Besides, on porcine pancreatic PLA2 [2] (dose 20 μ/ml, read-out: % Inh.), the inhibition at 20 µg/mL stood at 82%. The IC50 at porcine pancreatic PLA2 [2] is 12.5 µM.

Consider `CCCCCOCC(COP(=O)([O-])OCC[N+](C)(C)C)OP(=O)(OC)OCCCCC` (single isomer, unassigned; more polar) [3,5,8,10-Tetraoxa-4,9 diphosphapentadecan-1-aminium, 4-hydroxy-9-methoxy-N,N,N-trimethyl-7-[(pentyloxy)methyl]-, hydroxide, inner salt, 4,9-dioxide, more polar isomer], for which the inhibition at 25 µg/mL on porcine pancreatic PLA2 [1] (setting [6]) turned out to be 0%. Besides, the inhibition at 10 µg/mL at porcine pancreatic PLA2 [2] (dose 10 μ/ml, read-out: % Inh.) amounted to 5%. Moreover, at porcine pancreatic PLA2 [2] (dose 20 μ/ml, read-out: % Inh.), the inhibition at 20 µg/mL amounted to 11%. Besides, at porcine pancreatic PLA2 [3], the “% Inh.” value is “STIM”.

Regarding `CCCCCCCCCCCCCCCCOCC(COP(=O)([O-])OCC[N+](C)(C)C)CS(=O)(=O)CCCCCCCCCCCCCCCC` (stereo not drawn) [7-[(Hexadecylsulfonyl)methyl]-4-hydroxy-N,N,N-trimethyl-3,5,9-trioxa-4-phosphapentacosan-1-aminium, hydroxide, inner salt, 4-oxide], the inhibition at 25 µg/mL was determined as 19% at porcine pancreatic PLA2 [1] (setting [6]); 80% on porcine pancreatic PLA2 [3] (subs. con. 2, read-out: % Inh.); 72% at porcine pancreatic PLA2 [3] (setting [5]). The inhibition at 10 µg/mL at porcine pancreatic PLA2 [2] (dose 10 μ/ml, read-out: % Inh.) amounted to 9%; at porcine pancreatic PLA2 [2] (setting [4]), 57%. Further, the inhibition at 20 µg/mL at porcine pancreatic PLA2 [2] (dose 20 μ/ml, read-out: % Inh.) is 82%. The IC50 on porcine pancreatic PLA2 [2] was 2.99 µM.

`CCCCCCCCCCCCCCCCCC(=O)NCC(CO)COCCCCCCCCCCCCCCCC` (stereo not drawn) [N-[3-(Hexadecyloxy)-2-hydroxymethyl)propyl]octadecanamide]: the inhibition at 25 µg/mL is 35% at porcine pancreatic PLA2 [1] (setting [6]); 93% on porcine pancreatic PLA2 [2] (dose 25 μ/ml, read-out: % Inh.); 93% at porcine pancreatic PLA2 [3] (subs. con. 2, read-out: % Inh.). Moreover, on porcine pancreatic PLA2 [2] (dose 20 μ/ml, read-out: % Inh.), the inhibition at 20 µg/mL is 24%.

Regarding `CCCCCCCCCCCCCCCCOCC(O)(COP(=O)([O-])OCC[N+](C)(C)C)CC(N)CC` (stereo not drawn) [7-(2-Aminobutyl)-4,7-dihydroxy-N,N,N-trimethyl-3,5,9-trioxa-4-phosphapentacosan-1-aminium, hydroxide, inner salt, 4-oxide], the inhibition at 10 µg/mL on porcine pancreatic PLA2 [2] (dose 10 μ/ml, read-out: % Inh.) was 89%; at porcine pancreatic PLA2 [3] (subs. con. 2, read-out: % Inh.), 25%. Besides, the inhibition at 20 µg/mL on porcine pancreatic PLA2 [2] (dose 20 μ/ml, read-out: % Inh.) was 94%; at porcine pancreatic PLA2 [3] (subs. con. 2, read-out: % Inh.), 61%. The IC50 is 2.35 µM on porcine pancreatic PLA2 [2] and 34.7 µM at porcine pancreatic PLA2 [3].

With `CCCCCCCCCCCCCCCCOCC(COP(=O)([O-])OCC[N+](C)(C)C)OC(=O)CBr` (stereo not drawn) [3,5,9-Trioxa-4-phosphapentacosan-1-aminium, 7-[(bromoacetyl)oxy]-4-hydroxy-N,N,N-trimethyl-, hydroxide, inner salt, 4-oxide], the inhibition at 10 µg/mL on porcine pancreatic PLA2 [1] (setting [7]) is 35%; on porcine pancreatic PLA2 [1] (subs. con. 10, read-out: % Inh. Avg.) it was 32%; on porcine pancreatic PLA2 [3] (subs. con. 2, read-out: % Inh.), 52%. For the same compound, the inhibition at 25 µg/mL stood at 78% on porcine pancreatic PLA2 [1] (setting [6]) and 50% on porcine pancreatic PLA2 [1] (setting [8]). For the same compound, the IC50 was 83 µM on porcine pancreatic PLA2 [1] (subs. con. 10, read-out: IC50 Avg. (converted)) and 8.13 µM against porcine pancreatic PLA2 [3]. For the same compound, the inhibition at 20 µg/mL at porcine pancreatic PLA2 [3] (subs. con. 2, read-out: % Inh.) came out at 85%.

For the compound `CCCCCCCCCCCCCCCCOCC(COP(=O)([O-])OCC[N+](C)(C)C)OP(=O)(OC)OCCCCC` (single isomer, unassigned) [3,5,8,10-Tetraoxa-4,9-diphosphapentadecan-1-aminium, 7-[(hex] [3,5,8,10-Tetraoxa-4,9-diphosphapentadecan-1-aminium, 7-[(hexadecyloxy)methyl]-4-hydroxy-9-methoxy-N,N,N-trimethyl-, hydroxide, 4-(inner salt),4,9-dioxide, more polar isomer], the “% Inh.” value is on record as 82% at porcine pancreatic PLA2 [2] (dose 10 μ/ml), 89% at porcine pancreatic PLA2 [2] (dose 20 μ/ml) and “STIM” on porcine pancreatic PLA2 [3].

For `CCCCCCCCCCCCCCCCOCC(COP(=O)([O-])OCC[N+](C)(C)C)OC(=O)CCl` (stereo not drawn) [7-[(Chloroacetyl)oxy]-4-hydroxy-N,N,N-trimethyl-3,5,9-trioxa-4-phosphapentacosan-1-aminium, hydroxide, inner salt, 4-oxide], the inhibition at 10 µg/mL at porcine pancreatic PLA2 [1] (setting [7]) is 27%; at porcine pancreatic PLA2 [3] (subs. con. 2, read-out: % Inh.), 46%. Moreover, the inhibition at 25 µg/mL at porcine pancreatic PLA2 [1] (setting [8]) turned out to be 3%. Further, on porcine pancreatic PLA2 [3] (subs. con. 2, read-out: % Inh.), the inhibition at 20 µg/mL was found to be 72%. Half-maximal inhibition at porcine pancreatic PLA2 [3] (IC50) required 17.4 µM.

Turning to `CCCCCCCCCCCCCCCCOCC(COP(=O)([O-])OCC[N+](C)(C)C)CC1CO1` (stereo not drawn) [4-Hydroxy-N,N,N-trimethyl-7-(oxiranylmethyl)-3,5,9-trioxa-4-phosphapentacosan-1-aminium, hydroxide, inner salt, 4-oxide], the inhibition at 10 µg/mL came to 71% at porcine pancreatic PLA2 [2] (dose 10 μ/ml, read-out: % Inh.) and 74% on porcine pancreatic PLA2 [2] (setting [4]). Further, on porcine pancreatic PLA2 [2] (dose 20 μ/ml, read-out: % Inh.), the inhibition at 20 µg/mL is 88%. Besides, the IC50 at porcine pancreatic PLA2 [2] was 4.6 µM. For the same compound, the inhibition at 25 µg/mL at porcine pancreatic PLA2 [3] (subs. con. 2, read-out: % Inh.) came out at 85%.
